# Target: T1, rat histamine H3 receptor (Rattus norvegicus, UniProt Q9QYN8)
# T1 construct: encoding the entire 445-amino-acid rat histamine H3 receptor; expressed in transfected cells
# Test: Rat H3 radioligand binding ([3H]-N-alpha-methylhistamine, SPA)
# Conditions: not given
# From the text: The rat H3 receptor cDNA was PCR amplified from reverse-transcribed RNA pooled from rat thalamus, hypothalamus, striatum and prefrontal cortex with a sequence corresponding to by #338-1672 of Genbank file #NM_053506, encoding the entire 445-amino-acid rat histamine H3 receptor. This was engineered into the pIRES-neo3 mammalian expression vector, which was stably transfected into the CHO-A3 cell line (Euroscreen, Belgium), followed by clonal selection by limiting dilution. Cells were harvested and cell pellets were frozen (−80° C.). Cell pellets were resuspended in 5 mM Tris-HCl, pH 7.5 with 5 nM EDTA and a cocktail of protease inhibitors (Complete Protease Inhibitor Tablets, Roche Diagnostics). Cells were disrupted using a polytron cell homogenizer and the suspension was centrifuged at 1000×g for 10 minutes at 4° C. The pellet was discarded and the supernatant centrifuged at 40,000×g for 30 min at 4° C. This membrane pellet was washed in membrane buffer containing 50 mM Tris-HCl, pH 7.5 with 0.6 mM EDTA, 5 mM MgCl2 and protease inhibitors, recentrifuged as above and the final pellet resuspended in membrane buffer plus 250 mM sucrose and frozen at −80° C.
# (§1) Membranes were resuspended in 50 mM Tris HCl (pH 7.4), 5 mM MgCl2, 0.1% BSA. The membrane suspensions (10 μg protein per well) were incubated in a 96 well microtiter plate with [^3H]-N-alpha-methylhistamine (approximately 1 nM final concentration), test compounds at various concentrations (0.01 nM-30 μM) and scintillation proximity beads (Perkin Elmer, FlashBlueGPCR Scintillating Beads) in a final volume of 80 μl for 4 hours at room temperature, protected from light. Non-specific binding was determined in the presence of 10 μM clobenpropit. Radioligand bound to receptor, and therefore in proximity to the scintillation beads, was measured using a MicroBeta scintillation counter.
# T1 sequence (Q9QYN8 whole entry): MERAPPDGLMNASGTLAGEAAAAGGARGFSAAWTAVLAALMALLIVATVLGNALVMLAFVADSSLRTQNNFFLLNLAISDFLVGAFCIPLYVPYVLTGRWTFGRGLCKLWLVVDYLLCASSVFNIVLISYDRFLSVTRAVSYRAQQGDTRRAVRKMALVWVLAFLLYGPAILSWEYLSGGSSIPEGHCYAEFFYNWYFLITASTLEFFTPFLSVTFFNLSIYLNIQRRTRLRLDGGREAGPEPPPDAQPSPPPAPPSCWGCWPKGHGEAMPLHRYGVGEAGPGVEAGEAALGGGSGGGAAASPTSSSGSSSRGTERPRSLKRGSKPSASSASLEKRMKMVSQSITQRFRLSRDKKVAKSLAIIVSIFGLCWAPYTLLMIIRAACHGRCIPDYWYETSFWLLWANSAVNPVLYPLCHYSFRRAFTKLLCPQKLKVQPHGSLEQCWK
row,Compound,Ki [nM]
1,"CC1CCCN1CCCOc1ccc(C(=O)CN2CCOCC2)cc1 (stereo not drawn) [Example 1, 1-{4-[3-(2-Methyl-pyrrolidin-1-yl)-propoxy]-phenyl}-2-morpholin-4-yl-ethanone]",0.1 to 100
2,"C[C@@H]1CCCN1CCCOc1ccc(C(=O)CN2CCOCC2)cc1 [Example 41, 1-{4-[3-((R)-2-Methyl-pyrrolidin-1-yl)-propoxy]-phenyl}-2-morpholin-4-yl-ethanone]",0.1 to 100
3,"C[C@H]1CCCN1CCCOc1ccc(C(=O)CN2CCOCC2)cc1 [Example 42, 1-{4-[3-((S)-2-Methyl-pyrrolidin-1-yl)-propoxy]-phenyl}-2-morpholin-4-yl-ethanone]",501 to 1000

# Same assay, conditions: membranes of CHO-A3 cells expressing rat H3; [3H]-N-alpha-methylhistamine; read-out: Rat H3 Ki
row,Compound,Ki [nM]
1,CC1CCCN1CCCOc1ccc(C(CN2CCOCC2)=NOC(C)(C)C)cc1 (racemic) [Example 165],0.1 to 100
2,"C[C@@H]1CCCN1CCCOc1ccc(C(=O)CN2CCCCC2)cc1 [Example 8, 1-{4-[3-((R)-2-Methyl-pyrrolidin-1-yl)-propoxy]-phenyl}-2-piperidin-1-yl-ethanone]",0.1 to 100

# Target: T2, human H3 receptor (Homo sapiens, UniProt Q9Y5N1)
# T2 construct: expressed in transfected cells
# Test: Human H3 radioligand binding ([3H]-N-alpha-methylhistamine, SPA)
# Conditions: membranes of CHO cells expressing human H3
# Method: Cell pellets were resuspended in 5 mM Tris-HCl, pH 7.5 with 5 nM EDTA and a cocktail of protease inhibitors (Complete Protease Inhibitor Tablets, Roche Diagnostics). Cells were disrupted using a polytron cell homogenizer and the suspension was centrifuged at 1000×g for 10 minutes at 4° C. The pellet was discarded and the supernatant centrifuged at 40,000×g for 30 min at 4° C. This membrane pellet was washed in membrane buffer containing 50 mM Tris-HCl, pH 7.5 with 0.6 mM EDTA, 5 mM MgCl2 and protease inhibitors, recentrifuged as above and the final pellet resuspended in membrane buffer plus 250 mM sucrose and frozen at −80° C.
# as §1
# T2 sequence (Q9Y5N1 whole entry): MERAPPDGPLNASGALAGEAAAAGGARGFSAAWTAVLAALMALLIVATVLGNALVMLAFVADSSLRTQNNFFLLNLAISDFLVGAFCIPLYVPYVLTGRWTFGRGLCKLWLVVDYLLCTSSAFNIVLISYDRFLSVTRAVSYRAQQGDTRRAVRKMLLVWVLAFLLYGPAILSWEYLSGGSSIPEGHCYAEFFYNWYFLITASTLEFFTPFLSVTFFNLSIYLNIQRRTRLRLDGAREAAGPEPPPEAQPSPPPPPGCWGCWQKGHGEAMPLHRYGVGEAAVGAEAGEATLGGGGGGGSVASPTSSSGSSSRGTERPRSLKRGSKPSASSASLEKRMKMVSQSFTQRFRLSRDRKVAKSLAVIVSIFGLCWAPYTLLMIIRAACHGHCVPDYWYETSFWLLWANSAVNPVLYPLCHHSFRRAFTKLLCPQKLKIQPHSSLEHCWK
row,Compound,Ki [nM]
1,CC1CCCN1CCCOc1ccc(C(CN2CCOCC2)=NOC(C)(C)C)cc1 (racemic) [Example 165],0.1 to 100
2,"O=C(CN1CCCCC1)c1ccc(OCCCN2CCCCC2)cc1 [Example 2, 2-Piperidin-1-yl-1-[4-(3-piperidin-1-yl-propoxy)-phenyl]-ethanone]",0.1 to 100
3,"O=C(CN1CCCCC1)c1ccc(OCCCN2CCCC2)cc1 [Example 3, 2-Piperidin-1-yl-1-[4-(3-pyrrolidin-1-yl-propoxy)-phenyl]-ethanone]",0.1 to 100
4,"O=C(CN1CCc2ccccc2C1)c1ccc(OCCCN2CCCCC2)cc1 [Example 4, 2-(3,4-Dihydro-1H-isoquinolin-2-yl)-1-[4-(3-piperidin-1-yl-propoxy)-phenyl]-ethanone]",0.1 to 100
5,"O=C(CN1CCc2ccccc2C1)c1ccc(OCCCN2CCCC2)cc1 [Example 5, 2-(3,4-Dihydro-1H-isoquinolin-2-yl)-1-[4-(3-pyrrolidin-1-yl-propoxy)-phenyl]-ethanone]",0.1 to 100
6,"O=C(CN1Cc2ccccc2C1)c1ccc(OCCCN2CCCCC2)cc1 [Example 6, 2-(1,3-Dihydro-isoindol-2-yl)-1-[4-(3-piperidin-1-yl-propoxy)-phenyl]-ethanone]",0.1 to 100
7,"O=C(CN1CCCc2ccccc21)c1ccc(OCCCN2CCCCC2)cc1 [Example 7, 2-(3,4-Dihydro-2H-quinolin-1-yl)-1-[4-(3-piperidin-1-yl-propoxy)-phenyl]-ethanone]",0.1 to 100
8,"C[C@@H]1CCCN1CCCOc1ccc(C(=O)CN2CCCCC2)cc1 [Example 8, 1-{4-[3-((R)-2-Methyl-pyrrolidin-1-yl)-propoxy]-phenyl}-2-piperidin-1-yl-ethanone]",0.1 to 100
9,"C[C@@H]1CCCN1CCCOc1ccc(C(=O)CN2CCc3ccccc3C2)cc1 [Example 9, 2-(3,4-Dihydro-1H-isoquinolin-2-yl)-1-{4-[3-((R)-2-methyl-pyrrolidin-1-yl)-propoxy]-phenyl}-ethanone]",0.1 to 100
10,"CC1CCCCN1CCCOc1ccc(C(=O)CN2CCCCC2)cc1 (stereo not drawn) [Example 10, 1-{4-[3-(2-Methyl-piperidin-1-yl)-propoxy]-phenyl}-2-piperidin-1-yl-ethanone]",0.1 to 100
11,"CC1CCCC(C)N1CCCOc1ccc(C(=O)CN2CCCCC2)cc1 (stereo not drawn) [Example 11, 1-{4-[3-(2,6-Dimethyl-piperidin-1-yl)-propoxy]-phenyl}-2-piperidin-1-yl-ethanone]",0.1 to 100
12,"C[C@@H]1CC[C@@H](C)N1CCCOc1ccc(C(=O)CN2CCCCC2)cc1 [Example 12, 1-{4-[3-((2R,5R)-2,5-Dimethyl-pyrrolidin-1-yl)-propoxy]-phenyl}-2-piperidin-1-yl-ethanone]",0.1 to 100
13,"C[C@H]1CCCN1CCCOc1ccc(C(=O)CN2CCCCC2)cc1 [Example 13, 1-{4-[3-((S)-2-Methyl-pyrrolidin-1-yl)-propoxy]-phenyl}-2-piperidin-1-yl-ethanone]",0.1 to 100
14,"CC(C(=O)c1ccc(OCCCN2CCCC2)cc1)N1CCCCC1 (stereo not drawn) [Example 14, 2-Piperidin-1-yl-1-[4-(3-pyrrolidin-1-yl-propoxy)-phenyl]-propan-1-one]",0.1 to 100
15,"CC(C)N1CCN(CCCOc2ccc(C(=O)CN3CCCCC3)cc2)CC1 [Example 16, 1-{4-[3-(4-Isopropyl-piperazin-1-yl)-propoxy]-phenyl}-2-piperidin-1-yl-ethanone]",0.1 to 100
16,"O=C(CN1CCN(c2ccccc2)CC1)c1ccc(OCCCN2CCCC2)cc1 [Example 17, 2-(4-Phenyl-piperazin-1-yl)-1-[4-(3-pyrrolidin-1-yl-propoxy)-phenyl]-ethanone]",0.1 to 100
17,"CC1CCCN1CCCOc1ccc(C(=O)CN2CCN(c3ccccc3)CC2)cc1 (stereo not drawn) [Example 18, 1-{4-[3-(2-Methyl-pyrrolidin-1-yl)-propoxy]-phenyl}-2-(4-phenyl-piperazin-1-yl)-ethanone]",0.1 to 100
18,"CC(C(=O)c1ccc(OCCCN2CCCC2)cc1)N1CCCC1 (stereo not drawn) [Example 23, 2-Pyrrolidin-1-yl-1-[4-(3-pyrrolidin-1-yl-propoxy)-phenyl]-propan-1-one]",0.1 to 100
19,"CC1CCCN1CCCOc1ccc(C(=O)C(C)N2CCCC2)cc1 (stereo not drawn) [Example 24, 1-{4-[3-(2-Methyl-pyrrolidin-1-yl)-propoxy]-phenyl}-2-pyrrolidin-1-yl-propan-1-one]",0.1 to 100

row,Compound,Ki [nM]
1,"CC(C(=O)c1ccc(OCCCN2CCCC2)cc1)N1CCOCC1 (stereo not drawn) [Example 25, 2-Morpholin-4-yl-1-[4-(3-pyrrolidin-1-yl-propoxy)-phenyl]-propan-1-one]",0.1 to 100
2,"CC(C(=O)c1ccc(OCCCN2CCCCC2)cc1)N1CCOCC1 (stereo not drawn) [Example 26, 2-Morpholin-4-yl-1-[4-(3-piperidin-1-yl-propoxy)-phenyl]-propan-1-one]",0.1 to 100
3,"CC1CCCN1CCCOc1ccc(C(=O)C(C)N2CCN(c3ccccc3)CC2)cc1 (stereo not drawn) [Example 28, 1-{4-[3-(2-Methyl-pyrrolidin-1-yl)-propoxy]-phenyl}-2-(4-phenyl-piperazin-1-yl)-propan-1-one]",0.1 to 100
4,"CC(C(=O)c1ccc(OCCCN2CCCC2)cc1)N1CCN(c2ccccc2)CC1 (stereo not drawn) [Example 30, 2-(4-Phenyl-piperazin-1-yl)-1-[4-(3-pyrrolidin-1-yl-propoxy)-phenyl]-propan-1-one]",0.1 to 100
5,"CC(C(=O)c1ccc(OCCCN2CCCCC2)cc1)N1CCN(c2ccccc2)CC1 (stereo not drawn) [Example 31, 2-(4-Phenyl-piperazin-1-yl)-1-[4-(3-piperidin-1-yl-propoxy)-phenyl]-propan-1-one]",0.1 to 100
6,"CC(=O)N1CCN(C(C)C(=O)c2ccc(OCCCN3CCCCC3)cc2)CC1 (stereo not drawn) [Example 32, 2-(4-Acetyl-piperazin-1-yl)-1-[4-(3-piperidin-1-yl-propoxy)-phenyl]-propan-1-one]",0.1 to 100
7,"CC(=O)N1CCN(C(C)C(=O)c2ccc(OCCCN3CCCC3C)cc2)CC1 (stereo not drawn) [Example 33, 2-(4-Acetyl-piperazin-1-yl)-1-{4-[3-(2-methyl-pyrrolidin-1-yl)-propoxy]-phenyl}-propan-1-one]",0.1 to 100
8,"CC(C(=O)c1ccc(OCCCN2CCCCC2)cc1)N1CCSCC1 (stereo not drawn) [Example 34, 1-[4-(3-Piperidin-1-yl-propoxy)-phenyl]-2-thiomorpholin-4-yl-propan-1-one]",0.1 to 100
9,"CC1CCCN1CCCOc1ccc(C(=O)C(C)N2CCSCC2)cc1 (stereo not drawn) [Example 35, 1-{4-[3-(2-Methyl-pyrrolidin-1-yl)-propoxy]-phenyl}-2-thiomorpholin-4-yl-propan-1-one]",0.1 to 100
10,"CC(C(=O)c1ccc(OCCCN2CCC[C@@H]2C)cc1)N1CCCCC1=O (stereo partly drawn) [Example 36, 1-(1-Methyl-2-{4-[3-((S)-2-methyl-pyrrolidin-1-yl)-propoxy]-phenyl}-2-oxo-ethyl)-piperidin-2-one]",101 to 500
11,CO/N=C(\CN1CCCCC1)c1ccc(OCCCN2CCC[C@H]2C)cc1 [Example 159],0.1 to 100
12,CO/N=C(/CN1CCCCC1)c1ccc(OCCCN2CCC[C@H]2C)cc1 [Example 161],0.1 to 100
13,CON=C(c1ccc(OCCCN2CCCCC2)cc1)C(C)N1CCCCC1 (stereo not drawn) [Example 163],0.1 to 100
14,CC(C(=NOCc1ccccc1)c1ccc(OCCCN2CCCCC2)cc1)N1CCCCC1 (stereo not drawn) [Example 164],0.1 to 100
15,CC1CCCN1CCCOc1ccc(/C(CN2CCN(c3ccccc3)CC2)=N/OC(C)(C)C)cc1 (stereo not drawn) [Example 166],0.1 to 100
16,CON=C(c1ccc(OCCCN2CCCC2C)cc1)C(C)N1CCCCC1 (stereo not drawn) [Example 169],0.1 to 100
17,C[C@@H]1CCCN1CCCOc1ccc(/C(CN2CCOCC2)=N/OC2CCCCC2)cc1 [Example 170],0.1 to 100
18,CC(C)O/N=C(\CN1CCOCC1)c1ccc(OCCCN2CCC[C@H]2C)cc1 [Example 171],0.1 to 100

# — US20140296212A1, “SUBSTITUTED PHENOXYPROPYLCYCLOAMINE DERIVATIVES AS HISTAMINE-3 (H3) RECEPTOR LIGANDS” (CEPHALON, INC., priority 2009, published 2014)
